Publication PMC8617031, “Development of a BCL-xL and BCL-2 dual degrader with improved anti-leukemic activity,” (Nature Communications, 2021)
Several values for one entry are separate records, joined by “and”; a condition that tells them apart may be missing. Equal entries are not always repeated.

Legend:
[1] = target: T1, BCL-xL (Homo sapiens, UniProt Q07817); test: BCL-xL degradation by immunoblot in 293T cells; type: cell-based; conditions: for normalized BCL-xL protein content at 1 µM: HEK-293T, 293T, 1 μM 753b, Fig. 3d
T1 construct: endogenous in cells
Procedure: (§1) The DC50 and Dmax were calculated using Prism based on the ImageJ-quantified western blots in Supplementary Fig. 4. c, d AlphaLISA assay to determine the formation of BCL-xL/PROTAC/VHL-ELOC-ELOB (VCB) (c) or BCL-2/PROTAC/VCB (d) ternary complex in a cell-free condition. Data represent the mean of a single experiment with 2 technical replicates. Similar results were obtained in one more independent experiment. e, f NanoBRET assays evaluating intracellular BCL-xL/PROTAC/VCB (e) or BCL-2/PROTAC/VCB (f) ternary complex formation. […] Data are expressed as mean ± s.e.m. of three biological replicates. Source data are provided as a Source data file.
(§2) Representative immunoblots are shown in (a–d) and β-actin was used as a loading control in all immunoblot analyses. The normalized protein content in the immunoblots is presented as mean values ± s.e.m. (n = 3 biologically independent experiments) in the bar graph (bottom panel). e, f The formation of BCL-xL/PROTAC/VCB (e) and BCL-2/PROTAC/VCB (f) ternary complexes in a cell-free condition was determined by AlphaLISA assay. Data represent the mean of a single experiment with 2 technical replicates. […] Source data are provided as a Source data file.
(§3) Cells were collected, washed once with ice-cold phosphate-buffered saline, pH 7.2 (PBS, cat. no. 20012027; Thermo Fisher Scientific) and lysed in RIPA lysis buffer (Cat. No. BP-115DG, Boston Bio Products, Ashland, MA, USA) supplemented with protease and phosphatase inhibitor cocktails (Cat. No. PPC1010, Sigma-Aldrich, St. Louis, MO, USA) through sonication. The samples were centrifuged at 14,000 r.p.m. for 5 min and the supernatants were transferred into a new tube. The protein concentration in the supernatants was determined using the Pierce BCA protein Assay kit (cat. no. 23225, Thermo Fisher Scientific). The protein concentration was normalized, and the samples were reduced in 4× Laemmli’s SDS-sample buffer (cat. no. BP-110R, Boston Bio Products) and denatured at 95 °C for 5 min. An equal amount of protein samples (20–40 μg per lane) were resolved using precast 4–20% Tris-glycine gels (Mini-PROTEAN TGX, cat. no. 456–1094, Bio-Rad), and resolved proteins were transferred onto 0.2-µm pore size polyvinylidene difluoride (PVDF) blotting membranes (cat. no. LC2002, Thermo Fisher Scientific) using mini trans-blot electrophoretic transfer cell (Bio-Rad). The membranes were blocked with non-fat dry milk (5% wt/vol) in 1× Tris-buffered saline-Tween-20 (TBST, cat. no. J77500, Affymetrix) for 1 h at room temperature, and were subsequently probed with primary antibodies at a predetermined optimal concentration in non-fat dry milk (5% wt/vol in TBST) overnight at 4 °C. The membranes were washed three times (5 min each) in TBST and then incubated with horse radish peroxidase (HRP)-conjugated secondary antibodies for 1 h at room temperature. Following sufficient washing with TBST, the membranes were exposed with chemiluminescent HRP substrate (cat. no. WBKLS0500, MilliporeSigma), and the signal was detected using the ChemiDoc MP Imaging System (Bio-Rad) and quantified using the ImageJ (v1.53a) software from NIH.

[2] = target: T2, BCL-xL/PROTAC/VHL-ELOC-ELOB (VCB) ternary complex (Homo sapiens, UniProt P40337+Q07817); test: AlphaLISA ternary complex formation, cell-free, BCL-xL; type: binding; conditions: for AlphaLISA signal, BCL-xL/PROTAC/VCB: Fig. 3e raw Alpha reads
T2 construct: pGEX-6P-1-VHL(54-213) (pDL2200) was constructed through Gibson assembly method; made in house; host or cells: bacterial culture (LB broth, IPTG induction)
Procedure: (§4) AlphaLISA assay was used to evaluate the in vitro ternary complex formation between target proteins (BCL-xL or BCL-2), PROTAC and E3 ligase (VCB complex). In each well, 5 nM His-tagged BCL-xL or BCL-2 proteins and 5 nM GST-VCB complex was incubated with varying concentrations of compounds in fourfold serial dilutions, to a final volume of 40 µl in a 96-well PCR plate. After incubation at room temperature for 30 min, 5 µl alpha glutathione-donor beads (Cat. No. 6765300, PerkinElmer) were added to each well (20 µg/ml final concentration) and incubated for another 15 min. Thereafter, 5 µL 6× His-acceptor beads were added to each well (20 µg/ml final concentration) and incubated for an additional 45 min at room temperature. Thereafter, 17 µl of each sample was transferred in adjacent wells of a 384-well proxy plate, and the plate was scanned using the Alpha program on Biotek’s Synergy Neo2 multimode plate reader. The data were expressed as average AlphaLISA signal and plotted against different concentrations of compounds using GraphPad Prism 9 software.

[3] = target: T3, BCL-2/PROTAC/VCB ternary complex (Homo sapiens, UniProt P10415+P40337); test: AlphaLISA ternary complex formation, cell-free, BCL-2; type: binding; conditions: for Alpha (Alpha Endpoint read, Bcl-2 ternary complex formation): raw plate signal, duplicate wells
T3 construct: pGEX-6P-1-VHL(54-213) (pDL2200) was constructed through Gibson assembly method; made in house; host or cells: bacterial culture (LB broth, IPTG induction)
Procedure: as §4

[4] = target: T4, BCL-2 (Homo sapiens, UniProt P10415); test: BCL-2 degradation by immunoblot in 293T cells; type: cell-based; conditions: for normalized BCL-2 protein content at 1 µM: HEK-293T, 293T, 1 μM 753b, Fig. 3d
T4 construct: endogenous in cells
Procedure: as §1, §2, §3

[5] = compound 50000 nM, 2 technical replicates
[6] = time point 1 (unit inferred), time 0 = 100, 3 replicates

T2 sequence (Q07817 1-212 limits assumed): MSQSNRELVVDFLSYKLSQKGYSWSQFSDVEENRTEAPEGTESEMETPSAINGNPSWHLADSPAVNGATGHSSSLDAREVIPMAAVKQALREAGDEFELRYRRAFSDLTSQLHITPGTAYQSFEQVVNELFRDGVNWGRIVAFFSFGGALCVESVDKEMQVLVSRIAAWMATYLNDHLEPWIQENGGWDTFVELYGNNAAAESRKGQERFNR
T2 sequence (P40337 54-213 limits assumed): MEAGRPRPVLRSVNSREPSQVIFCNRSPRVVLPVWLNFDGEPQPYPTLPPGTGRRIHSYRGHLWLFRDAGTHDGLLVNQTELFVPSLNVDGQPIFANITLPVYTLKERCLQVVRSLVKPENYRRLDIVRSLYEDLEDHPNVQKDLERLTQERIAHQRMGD
T2 sequence (Q15369 17-112 partner limits assumed): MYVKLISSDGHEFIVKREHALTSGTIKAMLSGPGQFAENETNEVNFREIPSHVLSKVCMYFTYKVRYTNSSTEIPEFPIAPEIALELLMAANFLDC
T2 sequence (Q15370 whole entry partner): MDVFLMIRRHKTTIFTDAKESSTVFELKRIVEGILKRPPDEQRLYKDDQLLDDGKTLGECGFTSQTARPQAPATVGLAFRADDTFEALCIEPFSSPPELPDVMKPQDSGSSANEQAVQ
T1 sequence (Q07817 whole entry): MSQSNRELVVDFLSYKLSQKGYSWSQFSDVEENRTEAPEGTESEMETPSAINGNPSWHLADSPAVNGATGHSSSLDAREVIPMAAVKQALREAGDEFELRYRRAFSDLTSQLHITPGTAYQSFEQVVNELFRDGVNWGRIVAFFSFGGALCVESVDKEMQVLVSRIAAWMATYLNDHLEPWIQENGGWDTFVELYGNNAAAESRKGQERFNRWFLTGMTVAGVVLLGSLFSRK
T3 sequence (P10415 1-211 limits assumed): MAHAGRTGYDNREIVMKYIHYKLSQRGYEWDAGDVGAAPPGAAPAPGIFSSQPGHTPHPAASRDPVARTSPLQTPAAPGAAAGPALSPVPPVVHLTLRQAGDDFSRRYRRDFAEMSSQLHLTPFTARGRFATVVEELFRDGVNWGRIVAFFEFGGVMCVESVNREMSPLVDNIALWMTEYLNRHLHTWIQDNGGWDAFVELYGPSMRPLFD
T3 sequence (P40337 54-213 limits assumed): as the sequence (P40337 54-213 limits assumed) above
T3 sequence (Q15369 17-112 partner limits assumed): as the sequence (Q15369 17-112 partner limits assumed) above
T3 sequence (Q15370 whole entry partner): as the sequence (Q15370 whole entry partner) above
T4 sequence (P10415 whole entry): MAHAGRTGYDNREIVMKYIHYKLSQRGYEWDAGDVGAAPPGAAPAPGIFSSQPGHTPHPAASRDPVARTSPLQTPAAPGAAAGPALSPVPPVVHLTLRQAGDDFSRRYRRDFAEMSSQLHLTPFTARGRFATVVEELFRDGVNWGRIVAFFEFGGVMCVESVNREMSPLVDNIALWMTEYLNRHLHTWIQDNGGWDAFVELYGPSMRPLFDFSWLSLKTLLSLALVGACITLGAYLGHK

Row | AlphaLISA signal, BCL-xL/PROTAC/VCB ([2]; compound 0.19 nM) | AlphaLISA signal, BCL-xL/PROTAC/VCB ([2]; compound 3.05 nM) | AlphaLISA signal, BCL-xL/PROTAC/VCB ([2]; compound 12.21 nM) | AlphaLISA signal, BCL-xL/PROTAC/VCB ([2]; compound 195.31 nM) | AlphaLISA signal, BCL-xL/PROTAC/VCB ([2]; compound 781.25 nM) | AlphaLISA signal, BCL-xL/PROTAC/VCB ([2]; compound 3125 nM) | AlphaLISA signal, BCL-xL/PROTAC/VCB ([2]; compound 12500 nM) | AlphaLISA signal, BCL-xL/PROTAC/VCB [2, 5] | Alpha (Alpha Endpoint read, Bcl-2 ternary complex formation) ([3]; Conc. 0.0762939 nM) | Alpha (Alpha Endpoint read, Bcl-2 ternary complex formation) ([3]; Conc. 0.305176 nM) | Alpha (Alpha Endpoint read, Bcl-2 ternary complex formation) ([3]; Conc. 1.2207 nM) | Alpha (Alpha Endpoint read, Bcl-2 ternary complex formation) ([3]; Conc. 4.88281 nM) | Alpha (Alpha Endpoint read, Bcl-2 ternary complex formation) ([3]; Conc. 78.125 nM) | Alpha (Alpha Endpoint read, Bcl-2 ternary complex formation) ([3]; Conc. 1250 nM) | Alpha (Alpha Endpoint read, Bcl-2 ternary complex formation) ([3]; Conc. 20000 nM) | SMILES | AlphaLISA signal, BCL-xL/PROTAC/VCB ([2]; compound 48.83 nM) | Alpha (Alpha Endpoint read, Bcl-2 ternary complex formation) ([3]; Conc. 19.5312 nM) | Alpha (Alpha Endpoint read, Bcl-2 ternary complex formation) ([3]; Conc. 312.5 nM) | Alpha (Alpha Endpoint read, Bcl-2 ternary complex formation) ([3]; Conc. 5000 nM) | AlphaLISA signal, BCL-xL/PROTAC/VCB ([2]; compound 0.76 nM) | also measured
1 | 27453 and 33756 | 365306 and 327240 | 971358 and 937064 | 1256006 and 1243530 | 553159 and 551116 | 187859 and 162857 | 42241 and 44787 | 28218 and 24731 | 50534 and 53139 | 145058 and 154080 | 205372 and 217088 | 773602 and 780039 | 2343633 and 2509831 | 434318 and 434578 | 14264 and 11638 | Cc1ncsc1-c1ccc([C@H](C)NC(=O)[C@@H]2C[C@@H](O)CN2C(=O)[C@@H](NC(=O)CCCCCCC(=O)N2CCN(C[C@@]3(C)CCC(c4ccc(Cl)cc4)=C(CN4CCN(c5ccc(C(=O)NS(=O)(=O)c6ccc(N[C@H](CCN7CCOCC7)CSc7ccccc7)c(S(=O)(=O)C(F)(F)F)c6)cc5)CC4)C3)CC2)C(C)(C)C)cc1 [753a] | 1567841 and 1437893 | 1990534 and 2015902 | 1692897 and 1765154 | 40362 and 44856 | – | BCL-xL degradation (in words) ([1]; 293T cells, 16 h): could only partially degrade BCL-xL
2 | 12691 and 9324 | 28316 and 16721 | 27882 and 17689 | 22883 and 13939 | 12216 and 14015 | 19424 and 16133 | 17056 and 15505 | 14548 and 12360 | 13075 and 14039 | 25282 and 13828 | 26631 and 14952 | 23864 and 13192 | 25354 and 12957 | 25045 and 14016 | 20320 and 11437 | CC1(C)CCC(c2ccc(Cl)cc2)=C(CN2CCN(c3ccc(C(=O)NS(=O)(=O)c4ccc(N[C@H](CCN5CCOCC5)CSc5ccccc5)c(S(=O)(=O)C(F)(F)F)c4)cc3)CC2)C1 [ABT263, navitoclax] | – | – | – | – | 14711 and 17995 | –

Row | SMILES | AlphaLISA signal, BCL-xL/PROTAC/VCB ([2]; compound 0.19 nM) | AlphaLISA signal, BCL-xL/PROTAC/VCB ([2]; compound 3.05 nM) | AlphaLISA signal, BCL-xL/PROTAC/VCB ([2]; compound 12.21 nM) | AlphaLISA signal, BCL-xL/PROTAC/VCB ([2]; compound 195.31 nM) | AlphaLISA signal, BCL-xL/PROTAC/VCB ([2]; compound 781.25 nM) | AlphaLISA signal, BCL-xL/PROTAC/VCB ([2]; compound 3125 nM) | AlphaLISA signal, BCL-xL/PROTAC/VCB ([2]; compound 12500 nM) | AlphaLISA signal, BCL-xL/PROTAC/VCB [2, 5] | Alpha (Alpha Endpoint read, Bcl-2 ternary complex formation) ([3]; Conc. 0.0762939 nM) | Alpha (Alpha Endpoint read, Bcl-2 ternary complex formation) ([3]; Conc. 0.305176 nM) | Alpha (Alpha Endpoint read, Bcl-2 ternary complex formation) ([3]; Conc. 1.2207 nM) | Alpha (Alpha Endpoint read, Bcl-2 ternary complex formation) ([3]; Conc. 4.88281 nM) | Alpha (Alpha Endpoint read, Bcl-2 ternary complex formation) ([3]; Conc. 78.125 nM) | Alpha (Alpha Endpoint read, Bcl-2 ternary complex formation) ([3]; Conc. 1250 nM) | Alpha (Alpha Endpoint read, Bcl-2 ternary complex formation) ([3]; Conc. 20000 nM) | AlphaLISA signal, BCL-xL/PROTAC/VCB ([2]; compound 48.83 nM) | Alpha (Alpha Endpoint read, Bcl-2 ternary complex formation) ([3]; Conc. 19.5312 nM) | Alpha (Alpha Endpoint read, Bcl-2 ternary complex formation) ([3]; Conc. 312.5 nM) | Alpha (Alpha Endpoint read, Bcl-2 ternary complex formation) ([3]; Conc. 5000 nM) | AlphaLISA signal, BCL-xL/PROTAC/VCB ([2]; compound 0.76 nM) | also measured
3 | Cc1ncsc1-c1ccc([C@H](C)NC(=O)[C@@H]2C[C@@H](O)CN2C(=O)[C@@H](NC(=O)CCCCCCC(=O)N2CCN(C[C@]3(C)CCC(c4ccc(Cl)cc4)=C(CN4CCN(c5ccc(C(=O)NS(=O)(=O)c6ccc(N[C@H](CCN7CCOCC7)CSc7ccccc7)c(S(=O)(=O)C(F)(F)F)c6)cc5)CC4)C3)CC2)C(C)(C)C)cc1 [753b] | 52786 and 55133 | 554325 and 621989 | 1164205 and 1155712 | 1687174 and 1602581 | 724516 and 720957 | 238805 and 237649 | 37696 and 47526 | 26805 and 26614 | 175483 and 157446 | 174555 and 132830 | 345223 and 378556 | 1458903 and 1528033 | 2950431 and 3084677 | 474662 and 509499 | 44557 and 25949 | 1828094 and 1838568 | 3478424 and 3254843 | 1886162 and 2006989 | 83238 and 74082 | 140034 and 175918 | DC50 ([1]; 293T cells, 16 h, Fig. 3c, read-out: DC50 in degrading BCL-xL): 6 nM; normalized BCL-xL protein content at 1 µM [1, 6]: 77%; normalized BCL-xL protein content at 1 µM ([1]; time point 3): 55%; normalized BCL-xL protein content at 1 µM ([1]; time point 6): 21%; normalized BCL-xL protein content at 1 µM ([1]; time point 12): 13%; normalized BCL-xL protein content at 1 µM ([1]; time point 16): 12%; normalized BCL-xL protein content at 1 µM ([1]; time point 24): 8%; DC50 ([4]; 293T cells, 16 h, Fig. 3c, read-out: DC50 in degrading BCL-2): 48 nM; normalized BCL-2 protein content at 1 µM [4, 6]: 99%; normalized BCL-2 protein content at 1 µM ([4]; time point 3): 75%; normalized BCL-2 protein content at 1 µM ([4]; time point 6): 54%; normalized BCL-2 protein content at 1 µM ([4]; time point 12): 18%; normalized BCL-2 protein content at 1 µM ([4]; time point 16): 4%; normalized BCL-2 protein content at 1 µM ([4]; time point 24): 3%; normalized BCL-2 protein content at 1 µM ([4]; time point 36): 2%; in vitro ternary complex formation with BCL-xL (in words) ([2]; AlphaLISA, cell-free, Fig. 2c, 3e): stronger ternary complexes with BCL-xL/2 than those by 753a and DT2216; in vitro ternary complex formation with BCL-2 (in words) ([3]; AlphaLISA, cell-free, Fig. 2d, 3f): stronger ternary complexes with BCL-xL/2 than those by 753a and DT2216
